# Measured values: patent US12150927B2, “Use of cannabidiolic acid in the treatment of autism spectrum disorder and associated disorders” (GW Research Limited, priority 2016, dated 2024)
# Columns and labels:
# VPA-exposed offspring = test: Locomotor activity and repetitive behaviours (self-grooming) in activity cage, rat VPA model; type: in vivo, Sprague-Dawley rats; conditions: CBDA 20 mg/kg/day i.p. PND 34-56
# Method: (§1) Pregnant Sprague-Dawley rats (Charles River, Calco, Italy), received a single intraperitoneal injection of 500 mg/kg sodium valproate on the 12.5 day after conception, and control females were injected with physiological saline at the same time. Sodium valproate (Sigma Aldrich, Milan, IT) was dissolved in saline at a concentration of 250 mg/ml.
# (§2) CBDA was dissolved in ethanol, cremophor and saline (1:1:18). Symptomatic treatment with CBDA at doses of 2 and 20 mg/kg/day i.p. was performed starting from PND 34 (early adolescence) till 56 (early adulthood), both in male and female offspring of dams injected with VPA 500 mg/kg (or vehicle) on day 12.5 after conception. At PND 56, a series of behavioural tests was performed in order to assess the effect of chronic CBDA on sociability, social novelty, short-term memory, locomotion and stereotyped/repetitive behaviours.
# Locomotor activity and repetitive behaviours: Locomotor activity was recorded in an activity cage for 20 minutes with the aid of Anymaze program (Ugo Basile, Italy). In this period, repetitive behaviours (self-grooming and digging) were measured by an observer blind to the treatment group.
# VPA rats = test: Short-term memory, novel object recognition test, rat VPA model; type: in vivo, Sprague-Dawley rats; conditions: FIG. 2C
# Method: as §1, §2
# Short-term memory: The experimental apparatus used for the object recognition test was an open-field box (43×43×32 cm) made of Plexiglas, placed in a dimly illuminated room. The experiment was performed and analysed as previously described (Zamberletti et al, 2014). Animals performed each test individually.
# Each animal was placed in the arena and allowed to explore two identical previously unseen objects for 5 minutes (familiarization phase). After an inter-trial interval of 3 minutes one of the two familiar objects was replaced by a novel, previously unseen object and rats were returned to the arena for the 5-minute test phase. During the test phase the time spent exploring the familiar object (Ef) and the new object (En) was videotaped and recorded separately by two observers blind to the treatment groups and the discrimination index was calculated as follows: [(En−Ef)/(En+Ef)]×100.
# Fmr1 KO mice = test: Novel object recognition task, mouse model of fragile X syndrome; type: in vivo
# Method: Fmr1 KO mice and wild type mice were obtained and housed four per cage in a temperature of 21° C.±1° C. and humidity of 55%±10% controlled environment. Food and water were available ad libitum. All experiments were performed during the light phase of a 12 hour light/dark cycle (08:00 to 20:00). Animals were handled for one week before the start of experiments. All behavioural tests were performed by researchers blind to the different experimental groups.
# On day one mice were habituated for 10 minutes to the empty V-maze in which the task was to be performed. On the second day the mice went back to the maze for 10 minutes which contained two identical objects at the end of each corridor in the V-maze.
# The following day the mice were placed again in the same maze for a further 10 minutes but one of the familiar objects was replaced for a novel object. The total time spent exploring the novel and familiar object was recorded. A discrimination index was calculated as the difference between the time spent exploring the novel and familiar object divided by the total time exploring the two objects. A high discrimination index (0.3-0.5) is considered to reflect memory retention for the familiar object.
# Adult mice […] were treated either acutely with one dose of 20 mg/kg CBDA on PND 21 for 7 consecutive days. Mice were evaluated in the novel object recognition task after the first and sixth day of CBDA administration.
# MeCP2 KO mice = test: Symptom scoring, mouse model of Rett syndrome; type: in vivo; conditions: chronic CBDA 2 and 20 mg/kg i.p., FIG. 7-9
# Method: CBDA was administered daily at the dose of 2 or 20 mg/kg i.p. starting from PND 28 and the following signs were scored every other day: hindlimb clasping (indication of motor imbalance), tremor, gait (measure of coordination), breathing, mobility and general condition.
# The CBDA was dissolved in ethanol, cremophor and saline (1:1:18). Starting from PND 28, mice received a daily intraperitoneal injection of CBDA (or vehicle) at the dose of 2 or 20 mg/kg. Animals were then scored every other day to evaluate the effect of CBDA treatment on motor symptoms (hindlimb clasping, gait, mobility) as well as neurological signs and general conditions (breathing abnormalities, tremors and general condition) present in MeCP2 knockout (KO) mice.
# Each of the six symptoms was scored from 0 to 2 (0 corresponds to the symptom being absent or the same as in the wild type (WT) animal; 1 when the symptom was present; 2 when the symptom was severe).
# Mobility: the mouse is observed when placed on bench, then when handled gently. 0=as WT. 1=reduced movement when compared with WT: extended freezing period when first placed on bench and longer periods spent immobile. 2=no spontaneous movement when placed on the bench; mouse can move in response to a gentle prod or a food pellet placed nearby.
# Gait: 0=as WT. […]
# Ube3am-/p+ (AS) mice = test: Rotarod test, mouse model of Angelman syndrome; type: in vivo; conditions: chronic treatment (30 days) CBDA 20 mg/kg i.p., 10 weeks, vs AS vehicle, FIG. 13
# Method: Heterozygous mice with maternal deficiency of Ube3A (Ube3am−/p+) and wild type (Ube3am+/p+) were purchased from The Jackson Laboratory (Jackson code: B6.129S7-Ube3a tm1Alb/J) and maintained in a C57BL/6 background.
# Drugs were dissolved in 1:1:18 ethanol:cremophor:0.9% saline, for intraperitoneal (i.p.) administration. […] CBDA was administered at 20 mg/kg.
# Rotarod: The rotarod test assesses balance and motor coordination of mice. Mice have been measured for the time (in seconds) of equilibrium before falling on a rotary cylinder by a magnet that, activated from the fall of the mouse on the plate, allows to record the time of permanence on the cylinder. […] The animals were analysed by 2 separate tests at 1-h interval in the same day.
# animal models of seizure = conditions: co-pending UK patent application GB1514079.1; cited from earlier work
smiles,measurement,setting,value
"C=C(C)[C@@H]1CCC(C)=C[C@H]1c1c(O)cc(CCCCC)c(C(=O)O)c1O [CBDA, Cannabidiolic acid]",locomotor activity,"VPA-exposed offspring; VPA offspring, FIG. 2B",able to normalize this
same,repetitive behaviours (time spent in compulsive self-grooming),"VPA-exposed offspring; VPA-exposed offspring, FIG. 2A",significantly normalize this behaviour
same,short-term memory (discrimination index),"VPA rats; CBDA 20 mg/kg/day i.p., female VPA rats",able to reverse the short-term memory deficit
same,short-term memory (discrimination index),"VPA rats; CBDA 2 and 20 mg/kg/day i.p., male VPA rats",completely and significantly reversed the short-term memory deficit
same,recognition memory per se,VPA rats; CBDA given to vehicle-treated (non VPA) rats,without affecting per se recognition memory
same,discrimination index level,Fmr1 KO mice; Fmr1 KO mice treated with CBDA over 7 days,0.32
same,discrimination index,"Fmr1 KO mice; acute treatment, CBDA 20 mg/kg, Fmr1 KO mice vs KO vehicle, FIG. 3","increase the discrimination index slightly over that of the knockout mice administered vehicle, however this was not significant"
same,discrimination index (effect vs vehicle),"Fmr1 KO mice; chronic treatment, once daily for 7 days, CBDA 20 mg/kg, Fmr1 KO mice, FIG. 4",statistically significant increase in the discrimination index
same,"total symptom score (tremor, breathing, hindlimb clasping, gait, general condition, mobility)",MeCP2 KO mice,"partially improve these symptoms and decrease the total symptom score, however these data were not significant"
same,latency to fall (rotarod),Ube3am-/p+ (AS) mice,significantly reduced latency to fall
same,efficacy in animal models of seizure,animal models of seizure,effective in animal models of seizure
